Measurements published in PubChem BioAssay (NCI).
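Step 1: Grow cells in 96-well plates. Step 2: Expose to compound for 48 hours at 5 concentrations. Step 3: Interpolate endpoints linearly; if unreached, use highest concentration. GI50 marks 50% less growth. Definition used: TGI = concentration required for complete inhibition of growth.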

Columns and labels:
Assay in all cases: growth of human tumour cells (NCI), 48 h
MCF7 breast = test system: MCF7 breast
NCI-H460 lung = test system: NCI-H460 lung
IGROV1 ovarian = test system: IGROV1 ovarian
A498 renal = test system: A498 renal
DU-145 prostate = test system: DU-145 prostate
OVCAR-3 ovarian = test system: OVCAR-3 ovarian
ACHN renal = test system: ACHN renal
RPMI-8226 leukemia = test system: RPMI-8226 leukemia
OVCAR-5 ovarian = test system: OVCAR-5 ovarian
SK-MEL-28 melanoma = test system: SK-MEL-28 melanoma

Row | SMILES | TGI (MCF7 breast) [µM] | TGI (NCI-H460 lung) [µM] | TGI (IGROV1 ovarian) [µM] | TGI (A498 renal) [µM] | TGI (DU-145 prostate) [µM] | TGI (OVCAR-3 ovarian) [µM] | TGI (ACHN renal) [µM] | TGI (RPMI-8226 leukemia) [µM] | TGI (OVCAR-5 ovarian) [µM] | TGI (SK-MEL-28 melanoma) [µM] | GI50 (MCF7 breast) [µM] | GI50 (NCI-H460 lung) [µM] | GI50 (IGROV1 ovarian) [µM] | GI50 (A498 renal) [µM] | GI50 (DU-145 prostate) [µM] | GI50 (OVCAR-3 ovarian) [µM] | GI50 (ACHN renal) [µM] | GI50 (RPMI-8226 leukemia) [µM] | GI50 (OVCAR-5 ovarian) [µM] | GI50 (SK-MEL-28 melanoma) [µM]
1 | CCc1nc(N)nc(N)c1-c1ccc([N+](=O)[O-])c(Cl)c1 | > 100 | > 100 | > 100 | > 100 | > 100 | > 100 | > 100 | > 100 | > 100 | > 100 |  |  |  |  |  |  |  |  |  | 
2 | CCCCCCN(CCCCCC)CC(O)c1cccc2ccc(Cl)cc12 (centres undefined) | 20.3 | 19.6 | 23.8 | 22.3 | 25 | 26 | 18.8 | 22.4 | 13.7 | 24.3 | 7.52 | 6.63 | 10.3 | 10.4 | 11.6 | 13 | 5.89 | 5.2 | 2.6 | 12
3 | CCN(CC)CCOc1ccc(C2=C(c3ccccc3)CCc3cc(OC)ccc32)cc1 | 2.62 | 3.52 | 4.39 | 9.44 | 17.5 | 15.7 | 15.4 | 11.3 | 5.52 | 3.19 | 0.547 | 1.84 | 1.8 | 4.23 | 6.69 | 5.64 | 4.2 | 2.62 | 2.31 | 1.62
4 | C=CC[PH+](c1ccccc1)c1ccccc1.C=CC[PH+](c1ccccc1)c1ccccc1.[Cl][Pt][Cl] | 24.4 | 30.1 | 13.9 | 57.8 | 30.2 | 10.4 | 12.9 | 13.6 | 30.4 | 21.3 | 5.62 | 12.8 | 3.68 | 16.5 | 12.7 | 3.21 | 3.73 | 3.18 | 13.9 | 7.69
5 | CN1C(=O)C23CC4=CC=CC(O)C4N2C(=O)C1(CO)SS3 (centres undefined) | 0.371 | 0.801 | 0.297 | 0.402 | 0.318 | 0.33 | 0.334 | 0.591 | 0.149 | 2.26 |  |  |  |  |  |  |  |  |  | 
6 | N#Cc1ccc(N2Cc3cc(Cl)ccc3OC3=C2C(=O)N(Cc2ccccc2)C3=O)cc1 | 4.72 | 4.52 | 4.88 | 3.96 | 2.82 | 1.54 | 2.2 | 1.06 | 4.08 | 3.41 | 0.769 | 2.09 | 2.19 | 1.83 | 1.48 | 0.442 | 0.87 | 0.28 | 1.96 | 1.62
7 | O=[N+]([O-])c1cccc(-c2ncc(-c3ccc(Cl)cc3Cl)[nH]2)c1 | 3.57 | 30.2 | 13.5 | 22.6 | 10.5 | 5.93 | 18.3 | 4.68 | 23.1 | 3.72 | 1.14 | 7.26 | 6.65 | 6.12 | 4.46 | 2.44 | 7.48 | 1.08 | 8.07 | 1.79
8 | O=C(CC(C(=O)O)N1CCOCC1)c1ccccc1 (centres undefined) | 31.2 | 42.1 | 63.2 | 63 | 69.4 | 35.7 | 30.7 | 42.1 | 47.3 | 36.6 |  |  |  |  |  |  |  |  |  | 
9 | CC(=O)C1=C(O)/C(=C\c2ccco2)OC1=O | > 10 | > 10 | > 10 | > 10 | > 10 | > 10 | > 10 | > 10 | > 10 | > 10 |  |  |  |  |  |  |  |  |  | 
10 | CN1CCN(C(=S)SCN2C(=O)c3ccccc3S2(=O)=O)CC1 | > 100 | 96.1 | > 100 | > 100 | > 100 | 63.2 | > 100 | 6.87 | > 100 | 37.5 | 8.29 | 17.8 | 44.8 | 93 | 26.4 | 21.9 | 41.3 | 2.22 | 30.2 | 14.4
11 | COC1C(CO)OC(n2c3ccccc3c3c4c(c5c6ccccc6[nH]c5c32)C(=O)NC4=O)C(O)C1OC(=O)C(N)CCCCN (centres undefined) | > 50 | 27.1 | 4.42 | 3.11 | 4.05 | 5.1 | 3.51 | > 35.5 | > 50 | > 18.2 | 1.13 | 3.64 | 0.61 | 0.917 | 0.659 | 0.822 | 0.713 | > 15.7 | 3.12 | 2.67
12 | Nc1ccc2c(c1)CN1C(=O)c3ccccc3C1=N2 | > 78.9 | > 125 | 123 | 104 | > 125 | > 125 | > 125 | > 125 | > 112 | > 125 |  |  | 51 |  |  | 98.8 | 34 | 34.1 |  | 
13 | CC(C)n1nc(C#Cc2cccc(NC(=O)c3cccc(C(F)(F)F)c3)c2)c2c(N)ncnc21 | > 100 | > 100 | 1.59 | 2.51 | 12.3 | 28.9 | 5.72 | 16.7 | 27.7 | 6.82 | 7.5 | 3 | 0.333 | 1.07 | 2.78 | 2.96 | 1.01 | 2.26 | 1.36 | 0.368
14 | O=C(Nc1ccccc1)Nc1ccccc1CNc1nc(Nc2ccc(OCCN3CCCC3)cc2)ncc1Cl | 7.82 | 2.22 | 15.4 | 8.54 | 12.4 | 2.36 | 6.83 | 3.6 | 13.3 | 11.9 | 1.69 | 1.07 | 7.02 | 1.51 | 5.55 | 1.09 | 1.85 | 1.33 | 6.6 | 5.62
